This assay relates to P388 leukemia ip, CD2F1 mice, survival T/C. Nature of the assay: NCI In Vivo Anticancer Drug Screen. Data for tumor model P388 Leukemia (intraperitoneal) in CD2F1 (CDF1) mice. Conditions: endpoint: median survival time, higher = longer survival. The essentials:
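Mice carrying the transplanted tumor received test compound or vehicle. Survival was recorded in each group, and the value is the treated-group measurement divided by that of the vehicle-treated control group.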

Setting [1] is: dose: 50.0 mg/kg/injection, schedule: Q01DX005 (ip), vehicle: Klucel (hydroxypropylcellulose) (HPC).
Setting [2] is: dose: 100.0 mg/kg/injection, schedule: Q01DX005 (ip), vehicle: Klucel (hydroxypropylcellulose) (HPC).
Where [3] appears, read: dose: 200.0 mg/kg/injection, schedule: Q01DX005 (ip), vehicle: Klucel (hydroxypropylcellulose) (HPC).
Where [4] appears, read: dose: 50.0 mg/kg/injection, schedule: Q01DX009 (ip), vehicle: saline with Tween-80.
Setting [5] is: dose: 50.0 mg/kg/injection, schedule: Q01DX009 (ip), vehicle: Klucel (hydroxypropylcellulose) (HPC).
[6] abbreviates: dose: 60.0 mg/kg/injection, schedule: Q01DX005 (ip), vehicle: Klucel (hydroxypropylcellulose) (HPC).
Where [7] appears, read: dose: 120.0 mg/kg/injection, schedule: Q01DX005 (ip), vehicle: Klucel (hydroxypropylcellulose) (HPC).
Setting [8] is: dose: 240.0 mg/kg/injection, schedule: Q01DX005 (ip), vehicle: Klucel (hydroxypropylcellulose) (HPC).
Setting [9] is: dose: 50.0 mg/kg/injection, schedule: Q01DX009 (ip), vehicle: other.
The mark [10] stands for this setting: dose: 100.0 mg/kg/injection, schedule: Q01DX009 (ip), vehicle: other.
Where [11] appears, read: dose: 200.0 mg/kg/injection, schedule: Q01DX009 (ip), vehicle: other.
The mark [12] stands for this setting: dose: 400.0 mg/kg/injection, schedule: Q01DX009 (ip), vehicle: other.
The mark [13] stands for this setting: dose: 100.0 mg/kg/injection, schedule: Q01DX001 (ip), vehicle: saline with Tween-80.
Where [14] appears, read: dose: 200.0 mg/kg/injection, schedule: Q01DX001 (ip), vehicle: saline with Tween-80.
Where [15] appears, read: dose: 400.0 mg/kg/injection, schedule: Q01DX001 (ip), vehicle: saline with Tween-80.

“And” between values parts separate entries of the source, which are not always exact repeats. Equal entries are not always repeated. Inconclusive results and toxic doses are left out.

In the case of `CCCCCCCCCCN=Cc1c(O)c(O)c(CCC)c2cc(C)c(-c3c(C)cc4c(CCC)c(O)c(O)c(C=NCCCCCCCCCC)c4c3O)c(O)c12`, the T/C is 100 % of control (dose: 25.0 mg/kg/injection, schedule: Q01DX005 (ip), vehicle: Klucel (hydroxypropylcellulose) (HPC)); 95 % of control under setting [1]; 98 % of control under setting [2]; 95 % of control under setting [3].

For `CC1(C)N=C(N)N=C(N)N1c1ccc(CCC(=O)Nc2ccc(S(=O)(=O)F)cc2)c(Cl)c1`, the T/C is, setting by setting: (dose: 6.25 mg/kg/injection, schedule: Q01DX009 (ip), vehicle: saline) 157 % of control; (dose: 12.5 mg/kg/injection, schedule: Q01DX009 (ip), vehicle: saline with Tween-80) 187 % of control; (dose: 12.5 mg/kg/injection, schedule: Q01DX009 (ip), vehicle: saline) 200 % of control; (dose: 25.0 mg/kg/injection, schedule: Q01DX009 (ip), vehicle: saline with Tween-80) 170 % of control; (dose: 25.0 mg/kg/injection, schedule: Q01DX009 (ip), vehicle: saline) 209 % of control; under setting [4], 91 % of control. The T/C runs as follows: (dose: 50.0 mg/kg/injection, schedule: Q01DX009 (ip), vehicle: saline) 190 % of control; (dose: 100.0 mg/kg/injection, schedule: Q04DX003 (ip), vehicle: saline with Tween-80) 170 % of control; (dose: 132.0 mg/kg/injection, schedule: Q04DX003 (ip), vehicle: saline with Tween-80) 100 % of control; (dose: 200.0 mg/kg/injection, schedule: Q04DX003 (ip), vehicle: saline with Tween-80) 162 % of control and 190 % of control; (dose: 400.0 mg/kg/injection, schedule: Q04DX003 (ip), vehicle: saline with Tween-80) 95 % of control.

In the case of `COc1ccc(/C=C2/OC(=O)C(C(C)=O)=C2O)cc1`, the T/C is, setting by setting: under setting [5], 115 % of control; (dose: 100.0 mg/kg/injection, schedule: Q01DX009 (ip), vehicle: Klucel (hydroxypropylcellulose) (HPC)) 100 % of control.

Turning to `C1CC[C@]2([C@]34CCCC[C@H]3O4)O[C@@H]2C1`, the T/C by setting is: under setting [6], 99 % of control; under setting [7], 100 % of control; under setting [8], 104 % of control.

`CC(=O)N(CC1OC2OC(C)(C)OC2C2OC(C)(C)OC12)N=Nc1ccc([N+](=O)[O-])cc1` (stereo not given): the T/C by setting is: under setting [1], 100 % of control; under setting [2], 89 % of control; under setting [3], 91 % of control.

As to `CC1=C(O)CC(/C(C)=C\Cl)OC1=O` (stereo not given), the T/C runs as follows: (dose: 100.0 mg/kg/injection, schedule: Q04DX002 (ip), vehicle: Klucel (hydroxypropylcellulose) (HPC)) 101 % of control; (dose: 200.0 mg/kg/injection, schedule: Q04DX002 (ip), vehicle: Klucel (hydroxypropylcellulose) (HPC)) 98 % of control; (dose: 400.0 mg/kg/injection, schedule: Q04DX002 (ip), vehicle: Klucel (hydroxypropylcellulose) (HPC)) 104 % of control.

In the case of `O=C(Nc1cccc2ccccc12)OC1CC2CCC1C2Cl` (stereo not given), the T/C was 93 % of control (dose: 25.0 mg/kg/injection, schedule: Q01DX009 (ip), vehicle: other); 87 % of control under setting [9]; 87 % of control under setting [10]; 88 % of control under setting [11]; 91 % of control under setting [12].

Regarding `O=C(COc1cccc(Cl)c1)NCc1ccc([N+](=O)[O-])cc1`, the T/C is, setting by setting: under setting [13], 100 % of control; under setting [14], 90 % of control; under setting [15], 100 % of control.

As to `O=C(O)c1ccc[nH]c1=O`, the T/C is 98 % of control (dose: 25.0 mg/kg/injection, schedule: Q04DX003 (ip), vehicle: saline); 112 % of control (dose: 50.0 mg/kg/injection, schedule: Q04DX003 (ip), vehicle: saline); 99 % of control (dose: 100.0 mg/kg/injection, schedule: Q04DX003 (ip), vehicle: saline); 93 % of control (dose: 200.0 mg/kg/injection, schedule: Q04DX003 (ip), vehicle: saline).

With `Cc1cc2c(cc1C)NC1C(=O)C(c3ccc(Cl)c(Cl)c3)OC1=N2` (stereo not given), the T/C by setting is: (dose: 30.0 mg/kg/injection, schedule: Q01DX005 (ip), vehicle: Klucel (hydroxypropylcellulose) (HPC)) 91 % of control; under setting [6], 91 % of control; under setting [7], 93 % of control; under setting [8], 86 % of control.

As for `CC(=O)Nc1cn(C)cc1[N+](=O)[O-]`, the T/C was 102 % of control under setting [4]; 103 % of control (dose: 100.0 mg/kg/injection, schedule: Q01DX009 (ip), vehicle: saline with Tween-80); 104 % of control (dose: 200.0 mg/kg/injection, schedule: Q01DX009 (ip), vehicle: saline with Tween-80).

On to `CCC1(O)CC2CN(CCc3c([nH]c4ccccc34)C(C(=O)OC)(c3cc4c(cc3OC)N(C)C3C(O)(C(=O)NCCO)C(O)C5(CC)C=CCN6CCC43C65)C2)C1` (stereo not given), for which the T/C (dose: 0.13 mg/kg/injection, schedule: Q01DX009 (ip), vehicle: water) is 105 % of control; the T/C (dose: 0.2 mg/kg/injection, schedule: Q01DX009 (ip), vehicle: saline) was 150 % of control; the T/C (dose: 0.22 mg/kg/injection, schedule: Q01DX009 (ip), vehicle: water) was 117 % of control; the T/C (dose: 0.36 mg/kg/injection, schedule: Q01DX009 (ip), vehicle: water) is 122 % of control; the T/C (dose: 0.4 mg/kg/injection, schedule: Q01DX009 (ip), vehicle: saline) was 167 % of control; the T/C (dose: 0.6 mg/kg/injection, schedule: Q01DX009 (ip), vehicle: water) is 153 % of control. For the same compound, the T/C was 183 % of control (dose: 0.63 mg/kg/injection, schedule: Q04DX003 (ip), vehicle: saline); 96 % of control (dose: 0.8 mg/kg/injection, schedule: Q01DX009 (ip), vehicle: saline); 104 % of control (dose: 1.0 mg/kg/injection, schedule: Q01DX009 (ip), vehicle: water); 223 % of control (dose: 1.25 mg/kg/injection, schedule: Q04DX003 (ip), vehicle: saline); 274 % of control (dose: 2.5 mg/kg/injection, schedule: Q04DX003 (ip), vehicle: saline).

For the compound `COC(=O)c1nc2[nH]n(-c3ccccc3)c(=O)c2c2c1CCCCCCCCCC2`, the T/C runs as follows: (dose: 60.0 mg/kg/injection, schedule: Q01DX005 (ip), vehicle: saline) 102 % of control; (dose: 120.0 mg/kg/injection, schedule: Q01DX005 (ip), vehicle: saline) 96 % of control; (dose: 240.0 mg/kg/injection, schedule: Q01DX005 (ip), vehicle: saline) 96 % of control.

In the case of `COC(=O)c1ccccc1N=C/C(Cl)=C(/Cl)C(=O)O`, the T/C was 100 % of control and 110 % of control and 96 % of control (dose: 6.25 mg/kg/injection, schedule: Q01DX009 (ip), vehicle: Klucel (hydroxypropylcellulose) (HPC)); 100 % of control and 111 % of control and 117 % of control (dose: 12.5 mg/kg/injection, schedule: Q01DX009 (ip), vehicle: Klucel (hydroxypropylcellulose) (HPC)); 113 % of control and 118 % of control and 121 % of control (dose: 25.0 mg/kg/injection, schedule: Q01DX009 (ip), vehicle: Klucel (hydroxypropylcellulose) (HPC)); 113 % of control and 116 % of control and 119 % of control under setting [5].

Turning to `Cc1ccc(-n2c(O)c(N=Nc3ccccc3Cl)c(=O)n(-c3ccc(Br)cc3)c2=S)cc1`, the T/C by setting is: under setting [13], 98 % of control; under setting [14], 101 % of control; under setting [15], 96 % of control.

For the compound `CC(=O)OCC1OC2OC(C)(OC(C)C)OC2C(OC(C)=O)C1OC(C)=O` (stereo not given), the T/C reads like this: (dose: 4.0 mg/kg/injection, schedule: Q01DX009 (ip), vehicle: water) 106 % of control; (dose: 8.0 mg/kg/injection, schedule: Q01DX009 (ip), vehicle: water) 102 % of control; (dose: 16.0 mg/kg/injection, schedule: Q01DX009 (ip), vehicle: water) 100 % of control; (dose: 32.0 mg/kg/injection, schedule: Q01DX009 (ip), vehicle: water) 99 % of control; under setting [9], 108 % of control; (dose: 64.0 mg/kg/injection, schedule: Q01DX009 (ip), vehicle: water) 98 % of control. Besides, the T/C is, setting by setting: under setting [10], 108 % of control; under setting [11], 102 % of control; under setting [12], 102 % of control.
